The text below walks through data of paper PMC9963684, “Meroterpenoids with Immunosuppressive Activity from Edible Fungus Craterellus odoratus” (Molecules, 2023).

The nature of data set [1]: Cytotoxicity assay (CCK-8) on spleen cells. Type of data set: cell-based. To be noted: female, fresh spleen cells (splenic lymphocytes), BALB/c mouse spleen cells. As for the experimental part: (§1) Female BALB/c mice were sacrificed by cervical dislocation, and the spleens were removed aseptically. Mononuclear cell suspensions were prepared after cell debris and clumps were removed. Erythrocytes were depleted with ammonium chloride buffer solution. Lymphocytes were washed and resuspended in RPMI-1640 medium supplemented with 10% FBS, penicillin (100 U/mL), and streptomycin ([…]).
Cytotoxicity was tested with Cell Counting Kit-8 (CCK-8) assay. Briefly, fresh spleen cells were gained from female BALB/c mice (18–20 g). Spleen cells (1 ×10^6 cells) were seeded in triplicate in 96-well flat plates, then cultured at 37 °C for 48 h in 96-well flat plates in the presence or absence of various concentrations of compounds, as well as in a humidified and 5% CO2-containing incubator. A certain amount of CCK-8 was added to each well at the final 8–10 h of culture. At the end of culturing, we measured the OD values with a microplate reader (Bio-Rad 650, Hercules, CA, USA) at 450 nm. […] The cytotoxicity of each compound was expressed as the concentration of compound that reduced cell viability to 50% (CC50).

Data set [2] deals with LPS-induced B-cell proliferation (spleen cells). Description: LPS-induced B-cell proliferation ([3H]-thymidine uptake). Type of data set: cell-based. To be noted: Mus musculus, spleen cells stimulated with 10 µg/mL LPS. How it is done:
as §1
(§2) Fresh spleen cells were obtained from female BALB/c mice (18–20 g). The 5 × 10^5 spleen cells were cultured at the same conditions as those mentioned above. The cultures, in the presence or absence of various concentrations of compounds, were stimulated with 5 µg/mL of concanavalin A (ConA) or 10 µg/mL of lipopolysaccharide (LPS) to induce T-cells’ or B-cells’ proliferative responses, respectively. Proliferation was assessed in terms of uptake of [^3H]-thymidine during 8 h of pulsing with 25 µL/well of [^3H]-thymidine, and then cells were harvested onto glass fiber filters. The incorporated radioactivity was counted using a Beta scintillation counter (MicroBeta Trilux; PerkinElmer Life Sciences, Waltham, MA, USA). Cells treated without any stimuli were used as a negative control. The immunosuppressive activity of each compound was expressed as the concentration of compound that inhibited ConA-induced T-cell proliferation or LPS-induced B-cell proliferation to 50% (IC50) of the control value. […]

Data set [3] relates to ConA-induced T-cell proliferation (spleen cells). Description: ConA-induced T-cell proliferation ([3H]-thymidine uptake). The class given is cell-based. To be noted: Mus musculus, spleen cells stimulated with 5 µg/mL ConA. How it is done: as §1, §2
In data set [4] the test system is human 11β-hydroxysteroid dehydrogenases (11β-HSD1). Details: method as in PMID 19879607. Conditions: cited from earlier work.
In another data set the test system is human 11β-HSD2. Also noted: method as in PMID 19879607. To be noted: cited from earlier work.
In another data set the test system is Bacillus cereus. Details: method as in ref 17 = [17];  L.V. Levchenko S.V. O’Neill D.P. Advances in methods and algorithms in a modern quantum chemistry program. To be noted: cited from earlier work.
The subject of another data set is Escherichia coli. Details: L.V. Levchenko S.V. O’Neill D.P. Advances in methods and algorithms in a modern quantum chemistry program. Conditions: cited from earlier work.
A further data set relates to Staphylococcus aureus. Details: method as in ref 17 =  L.V. Levchenko S.V. O’Neill D.P. Advances in methods and algorithms in a modern quantum chemistry program. To be noted: cited from earlier work.
The next data set relates to Micrococcus luteus. Details: L.V. Levchenko S.V. O’Neill D.P. Advances in methods and algorithms in a modern quantum chemistry program. To be noted: cited from earlier work.
In data set [5] the test system is NO production in LPS-activated RAW264.7 macrophages. Description: Nitric oxide production in LPS-activated RAW264.7 macrophages. Conditions: Mus musculus, positive control, 1 μg/mL LPS, 18 h. Type of data set: cell-based, murine. As for the experimental part: Murine monocytic RAW264.7 macrophages were dispensed into 96-well plates (2 × 10^5 cells/well) containing RPMI-1640 medium (HyClone) with 10% FBS under a humidified atmosphere with 5% CO2 at 37 °C. After 24 h of preincubation, cells were treated with serial dilutions of the test compounds, up to a maximum concentration of 40 μM, in the presence of 1 μg/mL LPS for 18 h. The compounds were dissolved in DMSO and further diluted in the medium to produce different concentrations. NO production in each well was assessed by adding 100 μL of Griess reagent (reagent A and reagent B, Sigma, St. Louis, MO, USA) to 100 μL of each supernatant from the LPS-treated (Sigma) or LPS- and compound-treated cells in triplicate. After a 5 min incubation, the absorbance of samples was measured at 570 nm with a 2104 Envision multilabel plate reader (Perkin-Elmer Life Sciences, Inc., Boston, MA, USA).

In data set [6] the test system is human embryonic kidney 293 cell. Also noted: method as in PMID 26669092. Conditions: read-out: IC50 against human embryonic kidney 293 cell; cited from earlier work.

Converted amounts (≈) assume the structure as drawn. Peptide text beside a SMILES is read from it. * marks the point of attachment. Cbz = O=C(OCc1ccccc1)* Some results are limits rather than exact numbers.

In general, CC50 refers to the concentration that lowers cell viability or growth by half. Lower therefore signals harm at low concentration. The term IC50 denotes the point on the concentration scale where inhibition reaches its midpoint. In turn, `CC1=CCC2C(C)(C)CCCC2(C)C1CC12OC1C(=O)C(Cc1c(O)cc(CC(C)O)oc1=O)=CC2O` (stereo not shown) [Compound 1, craterodoratin T] registered a CC50 at 48 h in data set [1] above 40 µM. The IC50 in data set [2] was determined as 5.52 ± 0.452 µM.
In data set [1], `CC1=CC[C@H]2C(C)(C)CCC[C@]2(C)[C@H]1C[C@@]12O[C@@H]1[C@H](O)C(CO)=C[C@H]2O` [Compound 3, craterellin A] had a CC50 at 48 h above 40 µM. Moreover, the IC50 in [3] is 9.07 ± 0.644 µM; in [2], 20 ± 1.38 µM. For the same molecule, the “IC50 against human 11β-HSD1” value in [4] is 9.1 µg/mL (≈ 25.1 µM). In addition, the “IC50 against human 11β-HSD2” value with human 11β-HSD2 is 1.5 µg/mL (≈ 4.14 µM). In the data set with Bacillus cereus, the “MIC against Bacillus cereus” value was 3.12 µM (≈ 1.13 µg/mL). Also, the “MIC against Escherichia coli” value with Escherichia coli is 6.25 µM (≈ 2.27 µg/mL). For the same molecule, the “MIC against Staphylococcus aureus” value in the data set on Staphylococcus aureus is 6.25 µM (≈ 2.27 µg/mL). For the same molecule, the “MIC against Micrococcus luteus” value with Micrococcus luteus is 6.25 µM (≈ 2.27 µg/mL).
In the case of `CC(C)C[C@@H](C=O)NC(=O)[C@H](CC(C)C)NC(=O)[C@H](CC(C)C)NC(=O)OCc1ccccc1` [MG-132] (Cbz-Leu-Leu-Leu-aldehyde), the IC50 in data set [5] is 0.2 µM.
With `CC1=CCC2C(C)(C)C(O)CCC2(C)C1CC12OC1C(O)C(CO)=CC2O` (stereo not shown) [craterellin B], in data set [4], the “IC50 against human 11β-HSD1” value is 3.5 µg/mL (≈ 9.25 µM).
For the molecule `C=C1[C@@H](O)[C@H]2O[C@@]2(C[C@H]2C(C)=CC[C@H]3C(C)(C)CCC[C@]23C)[C@H](O)[C@H]1O` [craterellin C], the “IC50 against human 11β-HSD1” value in data set [4] is 14.8 µg/mL (≈ 40.8 µM). Also, the “IC50 against human 11β-HSD2” value in the data set on human 11β-HSD2 was 25.4 µg/mL (≈ 70.1 µM). Moreover, the IC50 in data set [6] was 50.9 µM.
